Results from ChEMBL document CHEMBL1201862, “PubChem BioAssay data set” (2004).
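Interpolation was linear, between the two tested concentrations surrounding the appropriate level; five concentrations were tested over 48 hours in 96-well plates. The concentration for 50% growth inhibition is given as GI50.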 The source made the active and inactive calls. No stated cut-off is given here; in the data, active = GI50 up to about 1.1 µM and inactive = higher.

Columns and labels:
Experiment in all cases: DTP human tumour cell line panel, 48 h
HT-29 = system: HT-29
SW-620 = system: SW-620
OVCAR-4 = system: OVCAR-4
OVCAR-3 = system: OVCAR-3
CAKI-1 = system: CAKI-1
M19-MEL = system: M19-MEL
UACC-257 = system: UACC-257
RPMI-8226 = system: RPMI-8226
EKVX = system: EKVX
SF-295 = system: SF-295
OVCAR-8 = system: OVCAR-8
MOLT-4 = system: MOLT-4
SN12C = system: SN12C
NCI-H226 = system: NCI-H226
SR = system: SR
786-0 = system: 786-0
RXF 393 = system: RXF 393
COLO 205 = system: COLO 205
UO-31 = system: UO-31
DMS-114 = system: DMS-114
OVCAR-5 = system: OVCAR-5
HCT-15 = system: HCT-15
UACC-62 = system: UACC-62
Malme-3M = system: Malme-3M
SF-268 = system: SF-268
NCI-H460 = system: NCI-H460
HCT-116 = system: HCT-116
LOX IMVI = system: LOX IMVI
DMS-273 = system: DMS-273
NCI-H522 = system: NCI-H522
NCI-H23 = system: NCI-H23
SK-MEL-28 = system: SK-MEL-28
SNB-19 = system: SNB-19
SK-MEL-5 = system: SK-MEL-5
KM-20L2 = system: KM-20L2
SK-MEL-2 = system: SK-MEL-2
CCRF-CEM = system: CCRF-CEM
K562 = system: K562
LXFL 529 = system: LXFL 529
A549 = system: A549
KM12 = system: KM12
U-251 = system: U-251
HL-60 = system: HL-60
SNB-75 = system: SNB-75
HOP-62 = system: HOP-62
A498 = system: A498
M14 = system: M14
SK-OV-3 = system: SK-OV-3
ACHN = system: ACHN
SNB-78 = system: SNB-78
BT-549 = system: BT-549
NCI/ADR-RES = system: NCI/ADR-RES
TK-10 = system: TK-10
MDA-MB-435 = system: MDA-MB-435
SF-539 = system: SF-539
MDA-N = system: MDA-N
HCC 2998 = system: HCC 2998
Hs-578T = system: Hs-578T
PC-3 = system: PC-3
MDA-MB-231 = system: MDA-MB-231
MCF7 = system: MCF7
HOP-92 = system: HOP-92
DU-145 = system: DU-145
T47D = system: T47D
IGROV-1 = system: IGROV-1
DLD-1 = system: DLD-1

Measured: GI50

O=c1c2cc(Br)ccc2nc(-c2ccccc2Cl)n1NCC1(O)OCC(O)C(O)C1O (stereo not given)
active: NCI-H226 0.434 µM
> 100 µM: HCT-15
inactive: HT-29 > 100 µM | SW-620 > 100 µM | OVCAR-4 60.7 µM | OVCAR-3 76.2 µM | CAKI-1 > 100 µM | M19-MEL > 100 µM | UACC-257 > 100 µM | RPMI-8226 99.1 µM | EKVX > 100 µM | SF-295 > 100 µM | OVCAR-8 > 100 µM | MOLT-4 57.1 µM | SN12C > 100 µM | SR 35.6 µM | 786-0 > 100 µM | RXF 393 > 100 µM | COLO 205 > 100 µM | UO-31 > 100 µM | DMS-114 75.9 µM | OVCAR-5 > 100 µM | UACC-62 > 100 µM | Malme-3M > 100 µM | SF-268 > 100 µM | NCI-H460 > 100 µM | HCT-116 > 100 µM | LOX IMVI > 100 µM | DMS-273 > 100 µM | NCI-H522 > 100 µM | NCI-H23 > 100 µM | SK-MEL-28 > 100 µM | SNB-19 > 100 µM | SK-MEL-5 > 100 µM | KM-20L2 > 100 µM | SK-MEL-2 > 100 µM | CCRF-CEM 46.7 µM | K562 > 100 µM | LXFL 529 82.8 µM | A549 > 100 µM | KM12 > 100 µM | U-251 > 100 µM | HL-60 33.6 µM | SNB-75 > 100 µM | HOP-62 > 100 µM | A498 > 100 µM | M14 > 100 µM | SK-OV-3 > 100 µM | ACHN > 100 µM | SNB-78 > 100 µM

C=C[C@@]1(C)CC2(C=C(CO)C(O)O2)Oc2c1c(=O)oc1cccc(C)c21 (stereo not given in full)
inactive: BT-549 3.35 µM | NCI/ADR-RES 2.61 µM | HT-29 4.69 µM | SW-620 1.55 µM | TK-10 17.6 µM | OVCAR-4 3.78 µM | OVCAR-3 3.16 µM | CAKI-1 4.61 µM | UACC-257 14.7 µM | EKVX 17.1 µM | SF-295 27.7 µM | OVCAR-8 5.28 µM | MOLT-4 2.1 µM | SN12C 9.86 µM | NCI-H226 17.9 µM | SR 2.4 µM | 786-0 1.98 µM | MDA-MB-435 3.57 µM | SF-539 5.53 µM | RXF 393 2.26 µM | MDA-N 4.03 µM | COLO 205 9.08 µM | UO-31 5.31 µM | HCC 2998 20.9 µM | Hs-578T 10.6 µM | PC-3 15.6 µM | OVCAR-5 17.6 µM | UACC-62 10.2 µM | Malme-3M 4.85 µM | SF-268 3.25 µM | NCI-H460 19.8 µM | HCT-116 1.74 µM | LOX IMVI 3.61 µM | NCI-H522 2.33 µM | MDA-MB-231 10.5 µM | MCF7 6.62 µM | NCI-H23 7.45 µM | SK-MEL-28 7.74 µM | HOP-92 20.2 µM | SNB-19 16.7 µM | SK-MEL-5 12.7 µM | SK-MEL-2 4.1 µM | CCRF-CEM 1.58 µM | K562 2.23 µM | DU-145 13.9 µM | A549 31 µM | KM12 18.3 µM | T47D 10.7 µM | U-251 10.9 µM | HL-60 1.77 µM | SNB-75 14.8 µM | HOP-62 17.5 µM | A498 24.2 µM | M14 3.52 µM | SK-OV-3 24.4 µM | ACHN 7.78 µM | IGROV-1 13.8 µM
active: RPMI-8226 0.822 µM
2.39 µM: HCT-15

N#CCC(=O)N1CCCCCCC1
inactive: HT-29 29.6 µM | SW-620 5.87 µM | TK-10 > 100 µM | OVCAR-4 > 100 µM | CAKI-1 > 100 µM | UACC-257 > 100 µM | EKVX > 100 µM | SF-295 > 100 µM | SN12C > 100 µM | 786-0 > 100 µM | SF-539 > 100 µM | RXF 393 > 100 µM | COLO 205 14.1 µM | UO-31 > 100 µM | HCC 2998 69.3 µM | DMS-114 31.3 µM | OVCAR-5 > 100 µM | UACC-62 > 100 µM | Malme-3M > 100 µM | DLD-1 > 100 µM | SF-268 > 100 µM | NCI-H460 42.7 µM | HCT-116 > 100 µM | LOX IMVI > 100 µM | DMS-273 35.7 µM | NCI-H23 > 100 µM | SK-MEL-28 > 100 µM | SNB-19 > 100 µM | SK-MEL-5 > 100 µM | KM-20L2 > 100 µM | SK-MEL-2 > 100 µM | CCRF-CEM > 100 µM | K562 > 100 µM | LXFL 529 77.8 µM | A549 > 100 µM | KM12 76.4 µM | U-251 > 100 µM | HL-60 28.2 µM | HOP-62 > 100 µM | A498 > 100 µM | M14 > 100 µM | SK-OV-3 > 100 µM | ACHN > 100 µM | SNB-78 > 100 µM | IGROV-1 > 100 µM
16.8 µM: HCT-15
